Experimental data: US8336545B2, “Methods and systems for operating an aerosol generator” (priority 2001, dated 2012)
Like-named read-outs stand apart in the source and are kept apart here.

Assays:
[1] = assay type: in vivo; conditions: all Arm 1 and 2 patients
Description: A study, using a double-blind, placebo-controlled protocol, was conducted of nebulized amikacin delivered using one or more embodiments of the pulmonary drug delivery system of the present invention in ventilated patients with Gram-negative pneumonia. The aerosol therapy was adjunctive to IV therapy per American Thoracic Society (ATS) guidelines. Such guidelines are fully set forth, for example, in the American Journal of Respiratory Critical Care Medicine, Vol 171, pages 388-416 (2005), incorporated by reference herein in its entirety. Twelve patients were randomized equally to three study arms: Arm 1 received an aerosolized dose of 400 mg amikacin once daily, and thereafter alternating every twelve hours with placebo. Arm 2 patients received 400 mg of amikacin twice daily (i.e. […]). Patients in Arm 3 were randomized to two aerosolized treatments of placebo every twelve hours. The placebo was Normal saline. […] Amikacin levels were monitored by daily blood sampling. […] The apparent volume of epithelial lining fluid (ELF) recovered by BAL was determined by using urea as an endogenous marker of dilution. The same day, the amikacin concentration was determined in tracheal aspirates (TA) collected 15 min and 1, 2, 4, 8 and 12 hours post aerosol delivery.

Gram-negative pneumonia [2] = test: Example C: clinical outcome, IV antibiotic days and tolerability; assay type: in vivo, patients; conditions: placebo group versus aerosol group, p=0.02
Description: (§1) A study, using a double-blind, placebo-controlled protocol, was conducted of nebulized amikacin delivered using one or more embodiments of the pulmonary drug delivery system of the present invention in ventilated patients with Gram-negative pneumonia. The aerosol therapy was adjunctive to IV therapy per American Thoracic Society (ATS) guidelines. In this study, sixty seven patients received at least one dose of aerosol medication. Patients were randomized equally to three study arms. Arm 1 patients received an aerosolized dose of 400 mg amikacin once daily, alternating with a placebo on a twelve hour schedule. Arm 2 patients received 400 mg of amikacin twice daily (i.e. […]). Patients in Arm 3 were randomized to two aerosol treatments of placebo every twelve hours. The placebo was Normal saline. The amikacin concentration was determined in TA collected 15 min and 1, 2, 4, 8 and 12 hours after delivery of the morning dose on Days 1 and 3. A PDDS/ventilator circuit configuration was as described for Example B. The microprocessor was set to deliver aerosol during the first approximately 75% of the inspiration, to achieve aerosol drug deposition of 50-75% of the dose, within approximately 45 to 60 minutes. Amikacin levels were monitored by daily blood sampling.

[3] = design: species or system patients; conditions: in vivo
Description: In this Example, the dose-response to aerosolized amikacin, administered in accordance with one or more embodiments of devices, apparatus and/or methods of the present invention was evaluated, as was the ability to deliver a predefined target multiple of an MIC for Gram-negative bacteria causing pneumonia, including, Pseudomonas species, in the tracheal aspirates (TA). […] Thus the desired multiple is 6,400 μg/mL.
as §1

[4] = system: Gram-negative, pneumonia-causing bacteria; conditions: locally in TA; cited from earlier work
Gram-negative pneumonia [5] = assay type: in vivo, patients
Description: A study, using a double-blind, placebo-controlled protocol, was conducted of nebulized amikacin delivered using one or more embodiments of the pulmonary drug delivery system of the present invention in ventilated patients with Gram-negative pneumonia. The aerosol therapy was adjunctive to IV therapy per American Thoracic Society (ATS) guidelines. Patients were randomized equally to three study arms. Arm 1 patients received an aerosolized dose of 400 mg amikacin once daily, alternating with a placebo on a twelve hour schedule. Arm 2 patients received 400 mg of amikacin twice daily (i.e. […]). Patients in Arm 3 were randomized to two aerosol treatments of placebo every twelve hours. The placebo was Normal saline. Peak amikacin concentration was determined in serum collected 0.25, 1, 2, and 4 hours after delivery of the dose on days 1 and 3, and the data was used to calculate Cmax. Trough concentrations were determined daily 30 minutes prior to the first daily dose. A PDDS/ventilator circuit configuration was as described for Example B. The microprocessor was set to deliver aerosol during the first approximately 75% of the inspiration, to achieve aerosol drug deposition of 50-75% of the dose within approximately 45 to 60 minutes. Amikacin levels were monitored by daily blood sampling.
The embodiments of devices, apparatus and/or methods of the present invention thus reduce the number of antibiotics required systemically to achieve a therapeutic result.

[6] = 400 mg daily (N = 20), percent of patients
[7] = 400 mg twice daily (N = 16), count
[8] = 400 mg twice daily (N = 16), percent of patients

NCC[C@H](O)C(=O)N[C@@H]1C[C@H](N)[C@@H](O[C@H]2O[C@H](CN)[C@@H](O)[C@H](O)[C@H]2O)[C@H](O)[C@H]1O[C@H]1O[C@H](CO)[C@@H](O)[C@H](N)[C@H]1O [amikacin]
amikacin levels versus highest MIC values [1]: exceeded the highest MIC values for pathogens causing Gram-negative pneumonia
IV antibiotic days at the end of aerosol administration (Gram-negative pneumonia [2]): placebo group had statistically more IV antibiotic days then the aerosol group
TA levels of amikacin ([3]; human): exceeded 1,100 μg/mL
TA level as multiple of the reference MIC target value [3]: at least four
amikacin level versus highest MIC values [3]: exceeded the highest MIC values for most Gram negative pathogens causing pneumonia
reference MIC value [4]: 256 µg/mL
mean IV antibiotics at end of treatment, aerosolized placebo relative to twice daily aerosolized amikacin (Gram-negative pneumonia [5]; 400 mg BID, end of treatment (mean of seven days)): about two
Total Number of Daily Antimicrobials (Gram-negative pneumonia [5]; 400 mg daily (N = 20)): 118
Number of Patients With at Least One Daily Antimicrobial (Gram-negative pneumonia [5]; 400 mg daily (N = 20), count): 19
patients with ANTIBACTERIALS FOR SYSTEMIC USE (Gram-negative pneumonia [5]; 400 mg daily (N = 20), count): 18
Number of Patients With at Least One Daily Antimicrobial (Gram-negative pneumonia [5]; [6]): (95.0%)
patients with ANTIBACTERIALS FOR SYSTEMIC USE (Gram-negative pneumonia [5]; [6]): (90.0%)
Total Number of Daily Antimicrobials (Gram-negative pneumonia [5]; 400 mg twice daily (N = 16)): 75
Number of Patients With at Least One Daily Antimicrobial (Gram-negative pneumonia [5]; [7]): 16
patients with ANTIBACTERIALS FOR SYSTEMIC USE (Gram-negative pneumonia [5]; [7]): 16
Number of Patients With at Least One Daily Antimicrobial (Gram-negative pneumonia [5]; [8]): (100.0%)
patients with ANTIBACTERIALS FOR SYSTEMIC USE (Gram-negative pneumonia [5]; [8]): (100.0%)
